Results published in PubChem BioAssay (NCI).
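At the GI50, growth is halved. Definition used: TGI = concentration required for complete inhibition of growth.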

Tests used:
Experiment in all cases: growth of human tumour cells (NCI), 384-well format
[1] = test system: A498 renal
[2] = test system: A549 NSCLC
[3] = test system: ACHN renal
[4] = test system: BT-549 breast
[5] = test system: CAKI-1 renal
[6] = test system: COLO 205 colon
[7] = test system: DU-145 prostate
[8] = test system: EKVX NSCLC
[9] = test system: HCC-2998 colon
[10] = test system: HCT-116 colon
[11] = test system: HCT-15 colon
[12] = test system: HL-60(TB) leukemia
[13] = test system: HOP-62 NSCLC
[14] = test system: HS 578T breast
[15] = test system: IGROV1 ovarian
[16] = test system: KM12 colon
[17] = test system: LOX IMVI melanoma
[18] = test system: M14 melanoma
[19] = test system: MALME-3M melanoma
[20] = test system: MCF7 breast
[21] = test system: MDA-MB-231 breast
[22] = test system: MDA-MB-435 melanoma
[23] = test system: MDA-MB-468 breast
[24] = test system: MOLT-4 leukemia
[25] = test system: NCI-H226 lung
[26] = test system: NCI-H23 lung
[27] = test system: NCI-H322M lung
[28] = test system: NCI-H460 NSCLC
[29] = test system: NCI-H522 lung
[30] = test system: NCI/ADR-RES ovarian
[31] = test system: OVCAR-3 ovarian
[32] = test system: OVCAR-4 ovarian
[33] = test system: OVCAR-5 ovarian
[34] = test system: PC-3 prostate
[35] = test system: RPMI-8226 leukemia
[36] = test system: SF-268 CNS
[37] = test system: SF-295 CNS
[38] = test system: SF-539 CNS
[39] = test system: SK-MEL-28 melanoma
[40] = test system: SK-MEL-5 melanoma
[41] = test system: SK-OV-3 ovarian
[42] = test system: SN12C renal
[43] = test system: SNB-75 CNS
[44] = test system: SR leukemia
[45] = test system: TK-10 renal
[46] = test system: U251 glioblastoma
[47] = test system: UACC-257 melanoma
[48] = test system: UACC-62 melanoma

Question: What does the source list for CC(C)(C)c1cnc(CSc2cnc(NC(=O)C3CCNCC3)s2)o1?
Answer: GI50 [1]: 240 nM; TGI [1]: 627 nM; GI50 [2]: 101 nM; TGI [2]: > 100000 nM; GI50 [3]: 950 nM; TGI [3]: 34100 nM; GI50 [4]: 114 nM; TGI [4]: 277 nM; GI50 [5]: 394 nM; TGI [5]: > 100000 nM; GI50 [6]: 25 nM; TGI [6]: 62.8 nM; GI50 [7]: 42 nM; TGI [7]: 299 nM; GI50 [8]: 204 nM; TGI [8]: 1070 nM; GI50 [9]: 51.8 nM; TGI [9]: 208 nM; GI50 [10]: 32.3 nM; TGI [10]: > 100000 nM; GI50 [11]: 2450 nM; TGI [11]: > 100000 nM; GI50 [12]: 14.3 nM; TGI [12]: 27.5 nM; GI50 [13]: 66 nM; TGI [13]: 330 nM; GI50 [14]: 136 nM; TGI [14]: 431 nM; GI50 [15]: 53.1 nM; TGI [15]: 566 nM; GI50 [16]: 35 nM; TGI [16]: 13700 nM; GI50 [17]: 24.1 nM; TGI [17]: 59.9 nM; GI50 [18]: 166 nM; TGI [18]: 425 nM; GI50 [19]: 123 nM; TGI [19]: 264 nM; GI50 [20]: 29.8 nM; TGI [20]: 16900 nM; GI50 [21]: 62.4 nM; TGI [21]: > 100000 nM; GI50 [22]: 113 nM; TGI [22]: 322 nM; GI50 [23]: 50.8 nM; TGI [23]: 176 nM; GI50 [24]: 37.4 nM; TGI [24]: 104 nM; GI50 [25]: 188 nM; TGI [25]: 680 nM; GI50 [26]: 78.3 nM; TGI [26]: 212 nM; GI50 [27]: 38.1 nM; TGI [27]: 159 nM; GI50 [28]: 68.6 nM; TGI [28]: 256 nM; GI50 [29]: 147 nM; TGI [29]: 306 nM; GI50 [30]: 26300 nM; TGI [30]: > 100000 nM; GI50 [31]: 46.4 nM; TGI [31]: 221 nM; GI50 [32]: 63.7 nM; TGI [32]: 368 nM; GI50 [33]: 25.2 nM; TGI [33]: 59.4 nM; GI50 [34]: 70.9 nM; TGI [34]: 397 nM; GI50 [35]: 27.3 nM; TGI [35]: 70.4 nM; GI50 [36]: 41 nM; TGI [36]: 264 nM; GI50 [37]: 373 nM; TGI [37]: 27100 nM; GI50 [38]: 35.4 nM; TGI [38]: 134 nM; GI50 [39]: 120 nM; TGI [39]: 285 nM; GI50 [40]: 109 nM; TGI [40]: 249 nM; GI50 [41]: 192 nM; TGI [41]: > 100000 nM; GI50 [42]: 38.4 nM; TGI [42]: 186 nM; GI50 [43]: 124 nM; TGI [43]: 278 nM; GI50 [44]: 12.1 nM; TGI [44]: 24.6 nM; GI50 [45]: 232 nM; TGI [45]: 799 nM; GI50 [46]: 107 nM; TGI [46]: 547 nM; GI50 [47]: 166 nM; TGI [47]: 350 nM; GI50 [48]: 47.3 nM; TGI [48]: 191 nM
